Source: patent publication EP1551873B1, “AGONISTS AND ANTAGONISTS OF THE HUMAN ODORANT RECEPTOR OR17-4 AND USES THEREOF” (Symrise AG, priority 2002, dated 2004)

Tested on: menschliche Nase
Experiment: Odour perception test on about 100 human subjects (agonist, antagonist, agonist again)
Assay type: in vivo
Excerpt: An ca. 100 Probanden wurde die Wirkung des Agonisten (Bourgeonal, "Duft A") und des Antagonisten (n-Undecanal, "Duft B") getestet. Dabei wurde zuerst an Duft A (1:100 verdünnt) gerochen, dann wurde in kurzem zeitlichen Abstand (1 - 3 s) an Duft B (ebenfalls 1:100 verdünnt) gerochen, anschließend wurde direkt wieder an Duft A gerochen. Die Probanden wurden nach ihrem Riecheindruck befragt: • Alle 100 Probanden konnten beim jeweils ersten Riechen spezifisch Duft A und B wahrnehmen und unterscheiden. Ca. 90 der 100 Testpersonen beschrieben, dass beim zweiten Riechen an Duft A kein Dufteindruck ausgelöst wurde. Nach ca. 1 Minute war Duft A bereits wieder riechbar.

Which “Testpersonen ohne Dufteindruck beim zweiten Riechen an Duft A” value (Duft B 1:100 sniffed 1 - 3 s after Duft A 1:100, then Duft A again) does the source give for `CCCCCCCCCCC=O` [n-Undecanal] here?
The value was “Ca. 90 der 100 Testpersonen”.

What about the “Zeit, nach der Duft A wieder riechbar war” value (after sniffing Duft B) of the same compound?
The value was “ca. 1 Minute”.
